These results are taken from patent US20250197409A1, “BIFUNCTIONAL COMPOUND AND PHARMACEUTICAL COMPOSITION COMPRISING THE BIFUNCTIONAL COMPOUND, AND METHOD FOR TREATING ANDROGEN RECEPTOR RELATED DISEASE BY USING THE SAME” (ANHORN MEDICINES CO., LTD., priority 2022, published 2025).

Structures are written as SMILES. Some results are limits rather than exact numbers.

In this experiment the target is T1, androgen receptor (Homo sapiens, UniProt P10275, T878A).
T1 construct: host or cells: LNCaP.FGC
T1 sequence (P10275 whole entry T878A): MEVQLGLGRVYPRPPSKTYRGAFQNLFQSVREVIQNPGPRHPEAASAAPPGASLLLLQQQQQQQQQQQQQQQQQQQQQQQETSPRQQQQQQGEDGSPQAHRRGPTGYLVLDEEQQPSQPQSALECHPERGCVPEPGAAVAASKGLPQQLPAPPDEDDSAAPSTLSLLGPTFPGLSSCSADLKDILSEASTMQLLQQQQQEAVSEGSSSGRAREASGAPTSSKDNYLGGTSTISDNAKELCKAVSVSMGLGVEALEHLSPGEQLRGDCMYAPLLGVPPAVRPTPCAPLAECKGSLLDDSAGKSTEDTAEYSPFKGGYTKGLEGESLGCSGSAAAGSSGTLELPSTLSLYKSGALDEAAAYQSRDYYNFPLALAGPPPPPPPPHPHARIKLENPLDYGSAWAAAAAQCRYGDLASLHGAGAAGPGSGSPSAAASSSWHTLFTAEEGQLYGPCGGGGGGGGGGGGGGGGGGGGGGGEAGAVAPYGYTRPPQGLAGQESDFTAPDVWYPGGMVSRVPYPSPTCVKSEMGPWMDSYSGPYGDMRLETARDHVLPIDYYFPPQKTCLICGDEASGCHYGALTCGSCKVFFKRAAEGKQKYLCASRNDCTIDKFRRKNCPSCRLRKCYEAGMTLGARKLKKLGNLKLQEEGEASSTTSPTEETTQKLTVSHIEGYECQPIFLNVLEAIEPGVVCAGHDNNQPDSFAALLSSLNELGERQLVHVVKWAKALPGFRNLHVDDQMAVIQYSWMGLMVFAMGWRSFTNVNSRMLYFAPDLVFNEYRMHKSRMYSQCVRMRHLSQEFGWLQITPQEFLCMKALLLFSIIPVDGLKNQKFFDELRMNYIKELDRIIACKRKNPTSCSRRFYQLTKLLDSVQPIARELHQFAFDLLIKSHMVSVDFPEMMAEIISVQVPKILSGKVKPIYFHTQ
T1 sequence (Q96SW2 whole entry partner): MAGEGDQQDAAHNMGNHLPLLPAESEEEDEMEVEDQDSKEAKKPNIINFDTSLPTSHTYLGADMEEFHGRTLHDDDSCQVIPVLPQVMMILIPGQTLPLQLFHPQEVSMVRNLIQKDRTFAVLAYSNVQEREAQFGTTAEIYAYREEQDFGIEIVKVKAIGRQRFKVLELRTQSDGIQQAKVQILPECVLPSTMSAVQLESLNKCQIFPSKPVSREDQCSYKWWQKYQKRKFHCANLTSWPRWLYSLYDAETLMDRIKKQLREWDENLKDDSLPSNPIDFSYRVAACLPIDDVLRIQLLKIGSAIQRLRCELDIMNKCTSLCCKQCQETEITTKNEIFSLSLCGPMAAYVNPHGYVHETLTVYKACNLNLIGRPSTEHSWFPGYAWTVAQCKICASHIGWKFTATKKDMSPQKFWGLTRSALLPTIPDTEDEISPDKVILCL
The experiment is described as follows: Androgen receptor degradation assay using Western blot analysis. The experiment is classed as cell-based. To be noted: for remaining activity at 0.1 µM: 24 h, read-out: Androgen Receptor Remaining (%), LNCaP.FGC cells, 100 nM, 24 hr, normalized to GAPDH, untreated cells = 100%; for DC50: read-out: AR DC50 (concentration needed for 50% AR degradation), serial 10x dilutions from 100 nM. The essentials:
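LNCaP.FGC cells (2×10^5/well) treated with 10-fold serial dilutions in RPMI from 100 nM stock; untreated cells as negative control. AR Western signal normalized to GAPDH, expressed as % remaining versus untreated (100%). DC50 derived from calibration curve of serial dilutions.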
Background: A western blot detects proteins with antibodies after separation by electrophoresis.

As for `CCn1c2c(c3ccc(OCCN4CCCN(c5ccc(C(=O)N[C@H]6CC[C@H](N(C)c7ccc(C#N)c(Cl)c7)CC6)nn5)CC4)cc31)C(=O)N(C1CCC(=O)NC1=O)C2=O` (stereo partly drawn) [Compound 110], the remaining activity at 0.1 µM worked out at 34%. The DC50 (LNCaP.FGC cells) lay within 0.01 to 0.025 µM.
For `CCn1c2c(c3ccc(OCCCCN4CCCN(c5ccc(C(=O)N[C@H]6CC[C@H](N(C)c7ccc(C#N)c(Cl)c7)CC6)nn5)CC4)cc31)C(=O)N(C1CCC(=O)NC1=O)C2=O` (stereo partly drawn) [Compound 112], in that order: 32% and 0.01 to 0.025 µM.
`CCn1c2c(c3ccc(OCCOCCN4CCN(c5ccc(C(=O)N[C@H]6CC[C@H](Oc7ccc(C#N)c(Cl)c7)CC6)nn5)CC4)cc31)C(=O)N(C1CCC(=O)NC1=O)C2=O` (stereo partly drawn) [Compound 113]: the remaining activity at 0.1 µM was 26%. Also, where the note is “LNCaP.FGC cells”, the DC50 fell in the range of 0.01 to 0.025 µM.
Regarding `CCn1c2c(c3ccc(OCCOCCN4CCN(c5ccc(C(=O)N[C@H]6CC[C@H](N(C)c7ccc(C#N)c(Cl)c7)CC6)nn5)CC4)cc31)C(=O)N(C1CCC(=O)NC1=O)C2=O` (stereo partly drawn) [Compound 114], the remaining activity at 0.1 µM came to 21%. The DC50 (LNCaP.FGC cells) is 0.01 to 0.025 µM.
On to `CCn1c2c(c3ccc(OCCOCCN4CCN(c5ccc(C(=O)N[C@H]6CC[C@H](Oc7ccc(C#N)c(Cl)c7)CC6)nn5)CC4)cc31)C(=O)N(C1CCC(=O)NC1=O)C2=O` (stereo partly drawn) [Compound 115], for which the “Androgen Receptor Remaining (%)” value (LNCaP.FGC cells, 100 nM, 24 hr, normalized to GAPDH, untreated cells = 100%) is listed as 26%. The DC50 (LNCaP.FGC cells) fell in the range of 0.025 to 0.1 µM.
Consider `CCn1c2c(c3ccc(OCCCCCN4CCN(c5ccc(C(=O)N[C@H]6CC[C@H](N(C)c7ccc(C#N)c(Cl)c7)CC6)nn5)CC4)cc31)C(=O)N(C1CCC(=O)NC1=O)C2=O` (stereo partly drawn) [Compound 116], for which the remaining activity at 0.1 µM stood at 37%. Besides, under “LNCaP.FGC cells”, the DC50 lay in the range of 0.025 to 0.1 µM.
For `CCn1c2c(c3ccc(OCCCN4CCN(c5ccc(N6C(=S)N(c7ccc(C#N)c(C(F)(F)F)c7)C(=O)C6(C)C)cc5)CC4)cc31)C(=O)N(C1CCC(=O)NC1=O)C2=O` (stereo not drawn) [Compound 117], the remaining activity at 0.1 µM amounted to 56%.
For `CCn1c2c(c3ccc(OCCN4CCN(c5ccc(N6C(=S)N(c7ccc(C#N)c(C(F)(F)F)c7)C(=O)C6(C)C)cc5)CC4)cc31)C(=O)N(C1CCC(=O)NC1=O)C2=O` (stereo not drawn) [Compound 118], the remaining activity at 0.1 µM stood at 80%.
For the molecule `CCn1c2c(c3ccc(OCC(=O)N4CCN(c5ccc(C(=O)N[C@H]6CC[C@H](Oc7ccc(C#N)c(Cl)c7)CC6)nn5)CC4)cc31)C(=O)N(C1CCC(=O)N(CO)C1=O)C2=O` (stereo partly drawn) [Compound 120], the remaining activity at 0.1 µM is 48%. Also, the DC50 (LNCaP.FGC cells) was 0.025 to 0.1 µM.
With `CCn1c2c(c3ccc(OCC(=O)N4CCN(c5ccc(C(=O)N[C@H]6CC[C@H](Oc7ccc(C#N)c(Cl)c7)CC6)nn5)CC4)cc31)C(=O)N(C1CCC(=O)NC1=O)C2=O` (stereo partly drawn) [Compound 121], the remaining activity at 0.1 µM came to 48%. Further, the DC50 (LNCaP.FGC cells) fell in the range of 0.025 to 0.1 µM.
As to `CCn1c2c(c3ccc(OCC(=O)N4CCC5(CC4)CN(c4ccc(C(=O)N[C@H]6CC[C@H](Oc7ccc(C#N)c(Cl)c7)CC6)nn4)C5)cc31)C(=O)N(C1CCC(=O)N(CO)C1=O)C2=O` (stereo partly drawn) [Compound 122], the remaining activity at 0.1 µM worked out at 33%. Besides, the DC50 (LNCaP.FGC cells) is more than 0.1 µM.
As for `CCn1c2c(c3ccc(OCC(=O)N4CCC5(CC4)CN(c4ccc(C(=O)N[C@H]6CC[C@H](Oc7ccc(C#N)c(Cl)c7)CC6)nn4)C5)cc31)C(=O)N(C1CCC(=O)NC1=O)C2=O` (stereo partly drawn) [Compound 123], the remaining activity at 0.1 µM worked out at 33%. Also, the DC50 (LNCaP.FGC cells) is more than 0.1 µM.
For the molecule `CCn1c2c(c3ccc(OCC(=O)N4CCN(c5ccc(C(=O)N[C@H]6CC[C@H](N(C)c7ccc(C#N)c(Cl)c7)CC6)nn5)CC4)cc31)C(=O)N(C1CCC(=O)N(CO)C1=O)C2=O` (stereo partly drawn) [Compound 124], the remaining activity at 0.1 µM amounted to 57%.
As for `CCn1c2c(c3ccc(OCC(=O)N4CCN(c5ccc(C(=O)N[C@H]6CC[C@H](N(C)c7ccc(C#N)c(Cl)c7)CC6)nn5)CC4)cc31)C(=O)N(C1CCC(=O)NC1=O)C2=O` (stereo partly drawn) [Compound 125], the remaining activity at 0.1 µM is 57%.
Consider `CCn1c2c(c3ccc(OCC(=O)N4CC5(CCN(c6ccc(C(=O)N[C@H]7CC[C@H](Oc8ccc(C#N)c(Cl)c8)CC7)nn6)CC5)C4)cc31)C(=O)N(C1CCC(=O)N(CO)C1=O)C2=O` (stereo partly drawn) [Compound 126], for which the remaining activity at 0.1 µM came out at 58%.
For the molecule `CCn1c2c(c3ccc(OCC(=O)N4CC5(CCN(c6ccc(C(=O)N[C@H]7CC[C@H](Oc8ccc(C#N)c(Cl)c8)CC7)nn6)CC5)C4)cc31)C(=O)N(C1CCC(=O)NC1=O)C2=O` (stereo partly drawn) [Compound 127], the remaining activity at 0.1 µM came to 58%.
In the case of `CCn1c2c(c3ccc(OCC(=O)N4CCC5(CC4)CN(c4ccc(C(=O)N[C@H]6CC[C@H](N(C)c7ccc(C#N)c(Cl)c7)CC6)nn4)C5)cc31)C(=O)N(C1CCC(=O)N(CO)C1=O)C2=O` (stereo partly drawn) [Compound 128], the remaining activity at 0.1 µM was found to be 63%.
Regarding `CCn1c2c(c3ccc(OCC(=O)N4CCC5(CC4)CN(c4ccc(C(=O)N[C@H]6CC[C@H](N(C)c7ccc(C#N)c(Cl)c7)CC6)nn4)C5)cc31)C(=O)N(C1CCC(=O)NC1=O)C2=O` (stereo partly drawn) [Compound 129], the remaining activity at 0.1 µM came to 63%.
The same measure, in the same setting: to `CCn1c2c(c3ccc(OCC(=O)N4CCCN(c5ccc(C(=O)N[C@H]6CC[C@H](N(C)c7ccc(C#N)c(Cl)c7)CC6)nn5)CC4)cc31)C(=O)N(C1CCC(=O)N(CO)C1=O)C2=O` (stereo partly drawn) [Compound 130] belongs 51%.
The same measure, in the same setting: to `CCn1c2c(c3ccc(OCC(=O)N4CCCN(c5ccc(C(=O)N[C@H]6CC[C@H](N(C)c7ccc(C#N)c(Cl)c7)CC6)nn5)CC4)cc31)C(=O)N(C1CCC(=O)NC1=O)C2=O` (stereo partly drawn) [Compound 131] belongs 51%.
On to `CCn1c2c(c3ccc(OCCCN4CCC5(CCN(c6ccc(C(=O)N[C@H]7CC[C@H](Oc8ccc(C#N)c(Cl)c8)CC7)nn6)C5)C4)cc31)C(=O)N(C1CCC(=O)NC1=O)C2=O` (stereo partly drawn) [Compound 132], for which the remaining activity at 0.1 µM came out at 7%. The DC50 (LNCaP.FGC cells) fell in the range of 0.01 to 0.025 µM.
For the molecule `CCn1c2c(c3ccc(OCCN4CCC5(CCN(c6ccc(C(=O)N[C@H]7CC[C@H](Oc8ccc(C#N)c(Cl)c8)CC7)nn6)C5)C4)cc31)C(=O)N(C1CCC(=O)NC1=O)C2=O` (stereo partly drawn) [Compound 133], the remaining activity at 0.1 µM was found to be 1%. Moreover, under “LNCaP.FGC cells”, the DC50 is 0.01 to 0.025 µM.
For the molecule `CCn1c2c(c3ccc(OCC(=O)N4CCC5(CCN(c6ccc(C(=O)N[C@H]7CC[C@H](Oc8ccc(C#N)c(Cl)c8)CC7)nn6)C5)C4)cc31)C(=O)N(C1CCC(=O)N(CO)C1=O)C2=O` (stereo partly drawn) [Compound 135], the remaining activity at 0.1 µM is 17%. Moreover, the DC50 (LNCaP.FGC cells) is 0.025 to 0.1 µM.
Take `CCn1c2c(c3ccc(OCC(=O)N4CCC5(CCN(c6ccc(C(=O)N[C@H]7CC[C@H](Oc8ccc(C#N)c(Cl)c8)CC7)nn6)C5)C4)cc31)C(=O)N(C1CCC(=O)NC1=O)C2=O` (stereo partly drawn) [Compound 136]: the remaining activity at 0.1 µM was 17%. The DC50 (LNCaP.FGC cells) fell in the range of 0.025 to 0.1 µM.
For `CCn1c2c(c3ccc(OCCOCC4CCN(c5ccc(C(=O)N[C@H]6CC[C@H](N(C)c7ccc(C#N)c(Cl)c7)CC6)nn5)CC4)cc31)C(=O)N(C1CCC(=O)NC1=O)C2=O` (stereo partly drawn) [Compound 137], in that order: 1% and 0.025 to 0.1 µM.
For `CCn1c2c(c3ccc(OCCOCC4CCN(c5ccc(C(=O)N[C@H]6CC[C@H](Oc7ccc(C#N)c(Cl)c7)CC6)nn5)CC4)cc31)C(=O)N(C1CCC(=O)NC1=O)C2=O` (stereo partly drawn) [Compound 138], the remaining activity at 0.1 µM is 39%. Further, the DC50 (LNCaP.FGC cells) lay within 0.025 to 0.1 µM.
In the case of `CCn1c2c(c3cc(OCCN4CCC(C#Cc5ccc(C(=O)NC6C(C)(C)C(Oc7ccc(C#N)c(Cl)c7)C6(C)C)cc5)CC4)ccc31)C(=O)N(C1CCC(=O)NC1=O)C2=O` (stereo not drawn) [Compound 139], the remaining activity at 0.1 µM came to 52%. For the same molecule, the DC50 (LNCaP.FGC cells) is 0.025 to 0.1 µM.
In the case of `CCn1c2c(c3ccc(OCCC4CCN(c5ccc(C(=O)N[C@H]6CC[C@H](N(C)c7ccc(C#N)c(Cl)c7)CC6)nn5)CC4)cc31)C(=O)N(C1CCC(=O)NC1=O)C2=O` (stereo partly drawn) [Compound 140], the remaining activity at 0.1 µM was determined as 32%. For the same molecule, the DC50 (LNCaP.FGC cells) lay within 0.025 to 0.1 µM.
In the case of `CCn1c2c(c3ccc(OCC(=O)NCC4CCN(c5ccc(C(=O)N[C@H]6CC[C@H](N(C)c7ccc(C#N)c(Cl)c7)CC6)nn5)CC4)cc31)C(=O)N(C1CCC(=O)C(CO)C1=O)C2=O` (stereo partly drawn) [Compound 141], the remaining activity at 0.1 µM was determined as 49%. Besides, the DC50 (LNCaP.FGC cells) lay in the range of 0.025 to 0.1 µM.
Take `CCn1c2c(c3ccc(OCC(=O)NCC4CCN(c5ccc(C(=O)N[C@H]6CC[C@H](N(C)c7ccc(C#N)c(Cl)c7)CC6)nn5)CC4)cc31)C(=O)N(C1CCC(=O)NC1=O)C2=O` (stereo partly drawn) [Compound 142]: the remaining activity at 0.1 µM worked out at 49%. Also, the DC50 (LNCaP.FGC cells) lay in the range of 0.025 to 0.1 µM.
As to `CCn1c2c(c3ccc(OC(=O)NC4CCN(c5ccc(C(=O)N[C@H]6CC[C@H](N(C)c7ccc(C#N)c(Cl)c7)CC6)nn5)CC4)cc31)C(=O)N(C1CCC(=O)NC1=O)C2=O` (stereo partly drawn) [Compound 144], the remaining activity at 0.1 µM worked out at 86%.
For `CCn1c2c(c3ccc(OCC(=O)N4CC5(CCN(c6ccc(C(=O)N[C@H]7CC[C@H](N(C)c8ccc(C#N)c(Cl)c8)CC7)nn6)C5)C4)cc31)C(=O)N(C1CCC(=O)N(CO)C1=O)C2=O` (stereo partly drawn) [Compound 145], the remaining activity at 0.1 µM is 62%.
For the molecule `CCn1c2c(c3ccc(OCC(=O)N4CC5(CCN(c6ccc(C(=O)N[C@H]7CC[C@H](N(C)c8ccc(C#N)c(Cl)c8)CC7)nn6)C5)C4)cc31)C(=O)N(C1CCC(=O)NC1=O)C2=O` (stereo partly drawn) [Compound 146], the remaining activity at 0.1 µM worked out at 62%.
As for `CCn1c2c(c3ccc(OCCOC4CC5(CCN(c6ccc(C(=O)N[C@H]7CC[C@H](Oc8ccc(C#N)c(Cl)c8)CC7)nn6)CC5)C4)cc31)C(=O)N(C1CCC(=O)NC1=O)C2=O` (stereo partly drawn) [Compound 147], the remaining activity at 0.1 µM amounted to 46%. In addition, where the note is “LNCaP.FGC cells”, the DC50 was in the range of 0.01 to 0.025 µM.
As for `CCn1c2c(c3ccc(OCCOC4CC5(CCN(c6ccc(C(=O)N[C@H]7CC[C@H](N(C)c8ccc(C#N)c(Cl)c8)CC7)nn6)CC5)C4)cc31)C(=O)N(C1CCC(=O)NC1=O)C2=O` (stereo partly drawn) [Compound 148], the remaining activity at 0.1 µM is 30%. In addition, where the note is “LNCaP.FGC cells”, the DC50 fell in the range of 0.01 to 0.025 µM.
